Patent US20090005435A1, “Novel Compounds, Pharmaceutical Compositions Containing Same, and Methods of Use for Same” (priority 2004, published 2009)
Several values for one entry are separate records, joined by “and”; a condition that tells them apart may be missing. Identical values can stand only once.

Tests used:
purified human FAS = target: T1, purified human FAS (Homo sapiens, UniProt P49327); assay: FAS enzymatic activity (malonyl-CoA dependent NADPH oxidation); assay type: biochemical; settings: for IC50: (SB)
T1 construct: Human FAS was purified from cultured ZR-75-1 human breast cancer cells; endogenous in cells; host or cells: ZR-75-1 human breast cancer cells (ATCC); enzyme purified by PEG precipitation and Mono Q chromatography
T1 sequence (P49327 whole entry): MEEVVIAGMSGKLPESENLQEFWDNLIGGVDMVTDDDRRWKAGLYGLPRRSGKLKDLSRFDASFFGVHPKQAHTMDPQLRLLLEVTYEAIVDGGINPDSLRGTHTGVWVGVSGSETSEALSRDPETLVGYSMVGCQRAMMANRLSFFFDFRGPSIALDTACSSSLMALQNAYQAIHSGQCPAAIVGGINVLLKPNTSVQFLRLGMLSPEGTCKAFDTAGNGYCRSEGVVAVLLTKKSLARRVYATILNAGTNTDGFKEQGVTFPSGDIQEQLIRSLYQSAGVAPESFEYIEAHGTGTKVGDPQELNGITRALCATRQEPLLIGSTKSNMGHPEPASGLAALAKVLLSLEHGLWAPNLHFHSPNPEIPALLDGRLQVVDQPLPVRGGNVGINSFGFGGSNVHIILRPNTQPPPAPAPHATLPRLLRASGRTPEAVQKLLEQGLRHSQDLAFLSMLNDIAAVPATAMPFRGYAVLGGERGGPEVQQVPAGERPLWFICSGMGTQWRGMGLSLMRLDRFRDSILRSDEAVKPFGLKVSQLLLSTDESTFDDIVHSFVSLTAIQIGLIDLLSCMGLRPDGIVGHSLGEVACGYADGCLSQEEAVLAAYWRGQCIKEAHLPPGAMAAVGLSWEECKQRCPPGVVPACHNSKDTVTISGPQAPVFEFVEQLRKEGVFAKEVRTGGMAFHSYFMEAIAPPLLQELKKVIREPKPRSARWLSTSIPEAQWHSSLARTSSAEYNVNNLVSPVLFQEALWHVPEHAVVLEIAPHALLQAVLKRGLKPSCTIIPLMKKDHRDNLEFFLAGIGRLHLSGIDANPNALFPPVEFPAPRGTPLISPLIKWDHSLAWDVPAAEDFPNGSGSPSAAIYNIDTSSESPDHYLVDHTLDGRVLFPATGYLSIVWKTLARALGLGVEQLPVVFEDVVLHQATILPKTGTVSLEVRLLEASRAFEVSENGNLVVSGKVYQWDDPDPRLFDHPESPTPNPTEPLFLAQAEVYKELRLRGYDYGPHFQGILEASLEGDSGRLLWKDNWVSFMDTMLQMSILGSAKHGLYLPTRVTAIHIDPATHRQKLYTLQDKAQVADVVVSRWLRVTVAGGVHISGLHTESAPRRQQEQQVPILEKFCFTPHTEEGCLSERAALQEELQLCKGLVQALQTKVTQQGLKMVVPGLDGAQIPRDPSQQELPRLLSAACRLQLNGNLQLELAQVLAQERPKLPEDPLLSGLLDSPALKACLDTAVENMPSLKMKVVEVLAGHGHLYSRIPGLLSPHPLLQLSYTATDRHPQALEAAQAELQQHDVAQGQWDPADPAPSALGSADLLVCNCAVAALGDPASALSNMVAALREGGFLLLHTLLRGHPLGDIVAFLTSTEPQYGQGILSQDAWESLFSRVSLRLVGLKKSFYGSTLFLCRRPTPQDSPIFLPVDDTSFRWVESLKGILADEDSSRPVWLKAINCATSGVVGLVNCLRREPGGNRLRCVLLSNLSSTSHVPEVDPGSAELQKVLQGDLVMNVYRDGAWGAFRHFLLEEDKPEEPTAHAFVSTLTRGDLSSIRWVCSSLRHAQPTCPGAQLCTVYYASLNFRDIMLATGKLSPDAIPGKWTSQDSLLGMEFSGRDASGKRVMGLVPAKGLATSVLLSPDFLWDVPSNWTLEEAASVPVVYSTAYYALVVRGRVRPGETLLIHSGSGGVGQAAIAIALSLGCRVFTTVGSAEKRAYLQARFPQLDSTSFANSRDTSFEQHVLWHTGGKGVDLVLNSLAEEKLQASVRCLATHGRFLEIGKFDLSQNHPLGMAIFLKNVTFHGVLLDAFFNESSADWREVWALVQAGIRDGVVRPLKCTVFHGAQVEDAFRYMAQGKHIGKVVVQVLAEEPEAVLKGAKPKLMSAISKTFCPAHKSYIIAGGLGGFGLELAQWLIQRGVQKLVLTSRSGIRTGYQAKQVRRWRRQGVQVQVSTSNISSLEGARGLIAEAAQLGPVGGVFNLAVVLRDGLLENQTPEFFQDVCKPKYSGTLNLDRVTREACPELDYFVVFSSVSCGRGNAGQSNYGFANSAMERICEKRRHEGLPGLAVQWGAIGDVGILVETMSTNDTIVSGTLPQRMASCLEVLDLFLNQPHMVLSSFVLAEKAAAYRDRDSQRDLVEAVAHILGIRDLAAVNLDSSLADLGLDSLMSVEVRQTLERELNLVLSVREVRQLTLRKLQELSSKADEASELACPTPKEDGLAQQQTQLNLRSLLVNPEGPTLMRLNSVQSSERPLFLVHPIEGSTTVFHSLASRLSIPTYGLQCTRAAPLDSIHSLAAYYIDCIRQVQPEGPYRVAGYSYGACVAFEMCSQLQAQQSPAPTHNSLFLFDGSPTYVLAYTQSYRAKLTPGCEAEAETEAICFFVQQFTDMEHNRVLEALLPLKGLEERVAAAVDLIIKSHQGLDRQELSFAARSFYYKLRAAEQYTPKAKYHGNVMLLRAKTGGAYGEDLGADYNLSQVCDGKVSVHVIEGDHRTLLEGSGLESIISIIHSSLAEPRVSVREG
Protocol: Purification of FAS from ZR-75-1 Human Breast Cancer Cells.
Human FAS was purified from cultured ZR-75-1 human breast cancer cells obtained from the American Type Culture Collection. The procedure, adapted from Linn et al., 1981, and Kuhajda et al., 1994, utilizes hypotonic lysis, successive polyethyleneglycol (PEG) precipitations, and anion exchange chromatography. ZR-75-1 cells are cultured at 37° C. with 5% CO2 in RPMI culture medium with 10% fetal bovine serum, penicillin and streptomycin.
Ten T150 flasks of confluent cells are lysed with 1.5 ml lysis buffer (20 mM Tris-HCl, pH 7.5, 1 mM EDTA, 0.1 mM phenylmethanesulfonyl fluoride (PMSF), 0.1% Igepal CA-630) and dounce homogenized on ice for 20 strokes. The lysate is centrifuged in JA-20 rotor (Beckman) at 20,000 rpm for 30 minutes at 4° C. and the supernatant is brought to 42 ml with lysis buffer. A solution of 50% PEG 8000 in lysis buffer is added slowly to the supernatant to a final concentration of 7.5%. After rocking for 60 minutes at 4° C., the solution is centrifuged in JA-20 rotor (Beckman) at 15,000 rpm for 30 minutes at 4° C. Solid PEG 8000 is then added to the supernatant to a final concentration of 15%. After the rocking and centrifugation is repeated as above, the pellet is resuspended overnight at 4° C. in 10 ml of Buffer A (20 mM K2HPO4, pH 7.4). After […] filtration, the protein solution is applied to a Mono Q 5/5 anion exchange column (Pharmacia). The column is washed for 15 minutes with buffer A at 1 ml/minute, and bound material is eluted with a linear 60-ml gradient over 60 minutes to 1 M KCl. FAS (MW˜270 kD) typically elutes at 0.25 M KCl in three 0.5 ml fractions identified using 4-15% SDS-PAGE with Coomassie G250 stain (Bio-Rad). FAS protein concentration is determined using the Coomassie Plus Protein Assay Reagent (Pierce) according to manufacturer's specifications using BSA as a standard. This procedure results in substantially pure preparations of FAS (>95%) as judged by Coomassie-stained gels.
Measurement of FAS Enzymatic Activity and Determination of the IC50 of the Compounds
FAS activity is measured by monitoring the malonyl-CoA dependent oxidation of NADPH spectrophotometrically at OD340 in 96-well plates (Dils et al and Arslanian et al, 1975). Each well contains 2 μg purified FAS, 100 mM K2HPO4, pH 6.5, 1 mM dithiothreitol (Sigma), and 187.5 μM β-NADPH (Sigma). Stock solutions of inhibitors are prepared in DMSO at 2, 1, and 0.5 mg/ml resulting in final concentrations of 20, 10, and 5 μg/ml when 1 μl of stock is added per well. For each experiment, cerulenin (Sigma) is run as a positive control along with DMSO controls, inhibitors, and blanks (no FAS enzyme) all in duplicate.
The assay is performed on a Molecular Devices SpectraMax Plus Spectrophotometer. The plate containing FAS, buffers, inhibitors, and controls are placed in the spectrophotometer heated to 37° C. Using the kinetic protocol, the wells are blanked on duplicate wells containing 100 μl of 100 mM K2HPO4, pH 6.5 and the plate is read at OD340 at 10 sec intervals for 5 minutes to measure any malonyl-CoA independent oxidation of NADPH. The plate is removed from the spectrophotometer and malonyl-CoA (67.4 μM, final concentration per well) and […] (61.8 μM, final concentration per well) are added to each well except to the blanks. The plate is read again as above with the kinetic protocol to measure the malonyl-CoA dependent NADPH oxidation. The difference between the Δ OD340 for the malonyl-CoA dependent and non-malonyl-CoA dependent NADPH oxidation is the specific FAS activity. Because of the purity of the FAS preparation, non-malonyl-CoA dependent NADPH oxidation is negligible.
The IC50 for the compounds against FAS is determined by plotting the Δ OD340 for each inhibitor concentration tested, performing linear regression and computing the best-fit line, r^2 values, and 95% confidence intervals. The concentration of compound yielding 50% inhibition of FAS is the IC50. […]

Weight loss screen = assay type: in vivo, Balb/C mice; settings: 60 mg/kg
Protocol: Weight Loss Screen for Novel FAS Inhibitors Balb/C mice (Jackson Labs) are utilized for the initial weight loss screening. Animals are housed in temperature and 12 hour day/night cycle rooms and fed mouse chow and water ad lib. Three mice are utilized for each compound tested with vehicle controls in triplicate per experiment. For the experiments, mice are housed separately for each compound tested three mice to a cage. Compounds are diluted in DMSO at 10 mg/ml and mice are injected intraperitoneally with 60 mg/kg in approximately 100 μl of DMSO or with vehicle alone. Mice are observed and weighed daily; average weights and standard errors are computed with Excel (Microsoft). The experiment continues until treated animals reach their pretreatment weights. Select compounds are tested in animals housed in metabolic cages. Dosing of animals are identical to the screening experiments with three animals to a single metabolic cage. Animal weights, water and food consumption, and urine and feces production are measured daily.

Compound | FAS (IC50) (purified human FAS) | IC50 (purified human FAS) [µM] | Weight Loss (Weight loss screen; day 1) | Weight Loss (Weight loss screen; day 2)
C=CCC1(CC=C)C(=O)SC(C)(CCCCCCCC)C1=O (racemic) [Compound 4, 3,3-Diallyl-5-methyl-5-octyl-thiophene-2,4-dione] | Neg | 884 | 7.9% and 8.0% and 6.8% | 
CCCCCCCCCCC1(C)SC(=O)C(C)(C)C1=O (stereo not shown) [Compound 12, 3,3,5-Trimethyl-5-decyl-thiophene-2,4-dione] |  | 854 |  | 60 mg/kg: 9.0% (day 2)
C=CCC1(CC=C)C(=O)SC(C)(CCCCCCCCCC)C1=O (stereo not shown) [Compound 15, 3,3-Diallyl-5-methyl-5-decyl-thiophene-2,4-dione] |  | 804 |  | 60 mg/kg: 3.5% (day 2)
